According to patent US20200291444A1, “Macrocyclisation Tags” (Oxford University Innovation LTD, priority 2017, published 2020):
Several values for one entry are separate records, joined by “and”; a condition that tells them apart may be missing. Identical values can stand only once. Entries after “also recorded” stand apart in the source; their conditions may differ. Like-named read-outs stand apart in the source and are kept apart here. No end group written: not given here.

What was measured:
GmPOPB_S577A = molecular target: T1, GmPOPB_S577A (Galerina marginata, UniProt H2E7Q8, S577A); assay: ITC binding to inactive mutant GmPOPB_S577A; details: for difference in binding affinity (fold): 13mer versus 35mer, 12 versus 17 amino acid recognition sequence; for binding (in words): concentrations up to 1 mM
T1 construct: His-tag (TEV-cleavable) (cleaved yes); made in house; host or cells: E. coli BL21(DE3)
T1 sequence (H2E7Q8 1-730 S577A): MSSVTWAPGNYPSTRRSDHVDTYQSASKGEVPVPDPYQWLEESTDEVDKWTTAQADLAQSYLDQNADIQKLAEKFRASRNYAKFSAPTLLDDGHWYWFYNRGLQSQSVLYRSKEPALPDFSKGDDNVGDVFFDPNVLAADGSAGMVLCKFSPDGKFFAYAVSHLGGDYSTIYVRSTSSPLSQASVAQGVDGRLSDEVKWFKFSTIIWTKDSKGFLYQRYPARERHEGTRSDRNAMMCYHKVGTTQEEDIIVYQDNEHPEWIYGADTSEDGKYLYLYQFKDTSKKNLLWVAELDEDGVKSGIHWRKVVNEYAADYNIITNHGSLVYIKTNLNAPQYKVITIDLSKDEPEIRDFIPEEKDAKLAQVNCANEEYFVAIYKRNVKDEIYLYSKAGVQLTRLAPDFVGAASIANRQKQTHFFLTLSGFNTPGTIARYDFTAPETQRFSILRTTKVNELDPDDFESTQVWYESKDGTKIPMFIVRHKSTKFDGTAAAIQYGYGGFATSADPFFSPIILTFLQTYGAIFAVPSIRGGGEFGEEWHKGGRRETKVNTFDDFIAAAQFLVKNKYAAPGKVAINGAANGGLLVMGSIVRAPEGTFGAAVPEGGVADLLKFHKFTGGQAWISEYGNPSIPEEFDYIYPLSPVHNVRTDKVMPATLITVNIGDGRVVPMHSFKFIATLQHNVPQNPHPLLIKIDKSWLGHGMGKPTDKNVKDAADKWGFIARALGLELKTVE
Description: GmPOPB peptide ligand solutions were prepared in 20 mM Tris pH 8.0 containing 1 mM DTT, prior to buffer exchange by three cycles of dilution in 50 mM Tris pH 8.0 with 50 mM NaCl, 10 mM DTT followed by concentration using a Microsep Advance centrifugal device equipped with a 1 kDa cut off membrane (Pall Corporation). The same three cycles of dilution in 50 mM Tris pH 8.0 with 50 mM NaCl and 10 mM DTT followed by concentration were performed with the protein to be used in the titration using a Vivaspin protein concentrator spin column with a 30 kDa cut off (GE Healthcare). A final dilution to the concentration to be used for titration was performed using the buffer that passed through during the protein buffer exchange, both for the protein and peptide to be used to avoid any possible buffer mismatch. […] Titrations of peptide into protein solutions were conducted at 20° C. For all the titration experiments, a total of 19 injections of 2 μL were made at 120 s intervals. The heat released due to the first injection (0.4 μL) was excluded from data analyses. […] Equilibrium dissociation constants (Kd) as well as ΔH and ΔS values for binding of each peptide to protein were obtained by fitting the calorimetric data with a single-site model using the stoichiometry parameter n fixed at 1.0 using Malvern PEAQ-ITC data analysis software.
We performed all ITC binding experiments at least in duplicate, and calculations of average and standard error of the mean were performed with GraphPad Prism.

PCY1 [1] = assay: PCY1 macrocyclisation of truncated presegetalin F1 substrates with catalytic peptide; assay type: biochemical, Saponaria vaccaria; details: for effect of catalytic peptide on rate of PreF1coreT macrocyclisation: substrate PreF1coreT (FSASYSSKPIQT), 500 μM catalytic peptide
PCY1, sequence (as listed by the source): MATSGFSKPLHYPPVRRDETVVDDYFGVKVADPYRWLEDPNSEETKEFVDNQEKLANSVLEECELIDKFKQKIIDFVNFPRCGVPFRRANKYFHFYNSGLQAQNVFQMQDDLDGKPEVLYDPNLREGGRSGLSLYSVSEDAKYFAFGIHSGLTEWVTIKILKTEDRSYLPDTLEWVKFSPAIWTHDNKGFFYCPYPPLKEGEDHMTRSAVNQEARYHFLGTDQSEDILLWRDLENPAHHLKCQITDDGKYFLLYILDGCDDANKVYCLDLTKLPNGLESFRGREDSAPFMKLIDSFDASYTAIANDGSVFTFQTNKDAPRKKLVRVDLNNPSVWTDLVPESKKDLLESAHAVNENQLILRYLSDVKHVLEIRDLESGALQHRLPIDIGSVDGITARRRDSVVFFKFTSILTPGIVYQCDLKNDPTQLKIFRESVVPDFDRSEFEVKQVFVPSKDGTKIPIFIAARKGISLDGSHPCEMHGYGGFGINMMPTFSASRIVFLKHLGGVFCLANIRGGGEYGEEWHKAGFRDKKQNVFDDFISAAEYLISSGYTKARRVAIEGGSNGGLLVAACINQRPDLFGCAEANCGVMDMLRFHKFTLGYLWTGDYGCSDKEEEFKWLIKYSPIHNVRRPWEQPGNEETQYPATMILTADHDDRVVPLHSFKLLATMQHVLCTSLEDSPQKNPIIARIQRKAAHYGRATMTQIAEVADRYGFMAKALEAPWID
Description: Initial rate measurements at different substrate concentrations were performed in order to derive steady state kinetics. All reactions were performed with 0.25 μM PCY1 and 25, 50, 100, 200, 400 or 800 μM substrate ([…] or […]). Reactions containing catalytic peptide RNASAPV or DNASAPV were supplemented with 500 μM of each peptide, respectively. Reactions were performed in 20 mM TRIS pH 8.5, 100 mM NaCl, 5 mM DTT at 30° C. Time points were taken at 5, 15, 30, 45 and 60 min. Samples (50 μL) at each time point were quenched with 20 μL of 6% (v/v) TFA and then spun down for 30 min at 3,080×g. Samples were analysed via LC/MS (ZORBAX SBC18, 5 μm, 9.4 mm×50 mm (Agilent) column connected to an Agilent LC-MS instrument (G6130B Single Quad, Agilent Technologies)) using 0.1% (v/v) formic acid and a gradient of acetonitrile (5%-95%). Extracted ion count peaks for corresponding product (A[[…]]) masses ([M]: 954.44, [M]+H^+: 955.44 and [M]+Na^+: 977.44) were integrated and converted in corresponding product concentration using an ion count v. [product] calibration curve. Product concentration time courses were analysed with linear regression and slopes were plotted as a function of substrate concentrations (Michaelis Menten plot), deriving steady state kinetic parameters shown in FIGS. 7 to 9.

PCY1:S562A = assay: ITC equilibrium binding to PCY1:S562A; set-up: species or system Saponaria vaccaria; details: for Kd: ITC, 25° C.
PCY1:S562A, sequence (as listed by the source, stated change not applied): as the sequence (as listed by the source) above, with S562A counted along it
Description: All PCY1 samples were buffer-exchanged or solubilized into buffer F and further diluted in the same batch of buffer F, in order to minimize buffer mismatches. ITC binding experiments were performed using a cell solution containing PCY1:S562A and a titrant solution with each peptide used. […] The measurements were performed at a stir speed of 750 rpm at 25° C. using a reference power of 10 μcal/s, except for A1-NH2 (5 μcal/s). A buffer titration control in which peptide was titrated into buffer was performed for each experiment. Data processing, fitting to a non-linear one-site binding model, and data plotting was performed using MicroCal PEAQ ITC analysis software (Malvern). […] The measurement was performed in buffer at 30° C., at 750 rpm using a reference power of 5 μcal/s.

PCY1 [2] = assay: LC/MS steady-state kinetics of macrocyclisation by PCY1; assay type: biochemical, Saponaria vaccaria; details: for Km: read-out: Km (table head prints Kin)
Description: (§1) All kinetic measurements (activity tests, progress curves and initial-rate experiments) were performed as discontinuous assays analyzing samples via LC/MS or MALDI (10-mer activity test). Reactions were performed in 20 mM Tris pH 8.5, 100 mM NaCl, 5 mM DTT (for progress curves 0.2 mg mL-1 BSA was included).17 Reactions were performed at 30° C. and at various time points 50 μL samples were quenched with 20 μL of 6% (v/v) TFA. Samples (50 μL) were loaded onto a ZORBAX SBC18, 5 μm, 9.4 mm×50 mm (Agilent) column connected to an Agilent LC-MS instrument (G6130B Single Quad, Agilent Technologies). Reactants were separated from products using a gradient from A (H2O with 0.1% formic acid) to 80% B (acetonitrile), at a rate of 1.5 mL/min for 8.75 min. For data analysis, ion count peaks and UV absorbance peaks were integrated using Agilent ChemStation software. For data analysis involving quantitative mass spec integration, calibration curves with macrocyclic peptide product were performed in triplicate in order to linearly correlate ion counts to cyclic product concentration. Data fitting and plotting was performed with Prism 6.
(§2) PCY1 extracted from S. vaccaria seeds has been previously described to have a turnover number of ˜1 h^−1 for PresegA1.^17 The enzyme produced heterologously in E. coli was evaluated by LC/MS-based time course experiments macrocyclizing 200 μM of PresegA1, PresegB1 or PresegF1 with 3.6 μM PCY1. These substrates were chosen as they produce 6, 5 and 9 residue macrocycles, respectively, show variability in the length of the C-terminal tail sequence, and have a different C-terminal core residue (proline in PresegF1, alanine in the other two) (FIG. 1b). PresegB1 was completely macrocyclized in ˜30 min, PresegA1 in ˜50 min and PresegF1 in >3 h (FIG. 2a). We chose to investigate the slowest and fastest substrate by steady-state kinetics using an LC/MS assay and UV280 nm quantification. […] Under the ITC conditions, the measured kcat (0.14±0.01 s^−1) was a factor of three lower than the LC/MS derived values. […] Therefore, we resorted to an LC/MS assay followed by quantification using mass ion counts, relying on a calibration curve employing the macrocyclic peptide product as a standard (FIG. 2b).

GmPOPB = molecular target: T2, GmPOPB (Galerina marginata, UniProt H2E7Q8); assay: GmPOPB kinetic assays (LC-MS); assay type: biochemical; details: room temperature
T2 construct: His-tag (TEV-cleavable) (cleaved yes); host or cells: E. coli BL21(DE3)
Description: Comparison between distinct GmPOPB substrates was performed in 50 mM Tris pH 8.0, 50 mM NaCl, 10 mM DTT with varying concentrations of substrates at room temperature. All reactions were performed in duplicates. Reactions were started by adding GmPOPB (50 nM for GmAMA1_C6S, 1 μM for the 13mer and 14mer, and 20 nM for other substrates) to the assay mixture containing buffer and peptide. Reactions were quenched at several time points by adding 50 μL reaction mixture to 20 μL 6% TFA. Reactants were separated from products for quantification by injecting 50 μL of each quenched time point mix onto a ZORBAX SB-C18, 5 μm, 9.4×50 mm (Agilent) column connected to an Agilent LC-MS (G6130B Single Quad, Agilent Technologies). Reactants were separated from products using a gradient from H2O containing 0.1% TFA or 0.1% formic acid and 5% acetonitrile to 50% acetonitrile, at 1.5 ml/min for 8 min. Peaks with ultra violet (UV) absorbance at 220 and 280 nm were integrated, the area of peaks corresponding to reactant and products was used to calculate the percentage of product formed after a correction for differences in the extinction coefficient of each peptide was applied (ε280-25mer=11,000M-1 cm-1, ε220-25mer=46,000M-1 cm-1, ε280-cyclic=5500M-1 cm-1, ε220-cyclic=34,000M-1 cm-1, and ε280-tail=5500M-1 cm-1). The sum of product+substrate was assumed equal to the total initial amount of substrate, product converted from % to concentration. This value was divided by concentration of enzyme present to yield v/Et (min-1). When enzyme mutants and peptides containing alanine in the core region were tested for activity, higher concentrations 5 μM enzyme and 100 μM substrate were incubated for 1 and 18 h at room temperature. For progress curves with the 35mer substrate, measurements were triplicate and quantification relied on ion counts from mass spectrometry. […] Authentic macrocyclic peptide was quantified by UV absorbance. Data showing products formed after 1 and 16 h with truncated peptides were performed twice. […] Kinetic data were fitted to a Michaelis-Menten equation using GraphPad Prism, and values reported are average and standard error of the mean.

PCY1 [3] = assay: LC/MS time course of macrocyclisation by PCY1; assay type: biochemical, Saponaria vaccaria; details: 200 μM substrate, 3.6 μM PCY1
Description: as §1
as §2, with “These substrates were chosen as they produce 6, 5 and 9 residue macrocycles, respectively, show variability in the length of the C-terminal tail sequence, and have a different C-terminal core residue (proline in PresegF1, alanine in the other two) (FIG. 1b). PresegB1 was completely macrocyclized in ˜30 min, PresegA1 in ˜50 min and PresegF1 in >3 h (FIG. 2a).” left out

[4] = ITC, 20° C., S577A mutant, read-out: Kd

CC[C@H](C)[C@H](NC(=O)CNC(=O)[C@H](Cc1c[nH]c2ccccc12)NC(=O)[C@@H](NC(=O)[C@@H]1CCCN1C(=O)[C@H](CC(C)C)NC(=O)[C@H](CCCNC(=N)N)NC(=O)[C@@H](NC(=O)[C@H](C)NC(=O)[C@H](CC(N)=O)NC(=O)[C@@H](NC(=O)[C@H](CC(=O)O)NC(=O)[C@H](Cc1ccccc1)NC(=O)[C@@H](N)CCSC)[C@@H](C)O)[C@@H](C)O)[C@@H](C)CC)C(=O)NCC(=O)N[C@@H](CS)C(=O)N[C@@H](CC(N)=O)C(=O)N1CCC[C@H]1C(=O)N[C@@H](Cc1c[nH]c2ccccc12)C(=O)N[C@H](C(=O)N[C@@H](C)C(=O)N[C@@H](CCC(=O)O)C(=O)N[C@@H](Cc1c[nH]cn1)C(=O)N[C@H](C(=O)N[C@@H](CC(=O)O)C(=O)N[C@@H](CCC(N)=O)C(=O)N[C@H](C(=O)N[C@@H](CC(C)C)C(=O)N[C@@H](C)C(=O)N[C@@H](CO)C(=O)NCC(=O)N[C@@H](CC(N)=O)C(=O)N[C@@H](CC(=O)O)C(=O)N[C@H](C(=O)N[C@@H](CS)C(=O)O)[C@@H](C)CC)[C@@H](C)O)C(C)C)[C@@H](C)O [35mer, reference compound]
Kd (GmPOPB_S577A; [4]): 0.12 ± 0.03 µM

DNASAPV [catalytic peptide for PCY1]
effect of catalytic peptide on rate of PreF1coreD macrocyclisation (PCY1 [1]; substrate PreF1coreD (FSASYSSKPIQD), mismatched catalytic peptide): reduces the rate

FSASYSSKPIQT [PresegF1-truncated]
Kd (in words) (PCY1:S562A; poor peptide solubility at high concentrations): too high to be accurately measured
Km (PCY1 [2]; LC/MS (ion counts), 30° C.): 227 µM

H-IWGIGCNPWT [10mer]
Kd (GmPOPB_S577A; [4]): 83 ± 17 µM

H-IWGIGCNPWTA [11mer]
Kd (GmPOPB_S577A; [4]): 39 ± 18 µM

H-IWGIGCNPWTAE [12mer]
Kd (GmPOPB_S577A; [4]): 21 ± 5 µM

H-IWGIGCNPWTAEH [13mer]
difference in binding affinity (fold) (GmPOPB_S577A): ~20 fold and 10 fold
Kd (GmPOPB_S577A; [4]): 2.4 ± 0.1 µM
Km (GmPOPB): 25 µM
kcat (GmPOPB): 0.00817 s⁻¹

H-IWGIGCNPWTAEHV [14mer]
Kd (GmPOPB_S577A; [4]): 9.5 ± 1.1 µM
Km (GmPOPB): 380 µM
kcat (GmPOPB): 0.00967 s⁻¹

MFDTNATRLP [reference compound]
binding (in words) (GmPOPB_S577A; ITC): no detectable binding
binding (in words) (GmPOPB_S577A; ITC, listed as 10-residue leader): does not bind
binding (in words) (GmPOPB_S577A; ITC, listed as leader): does not bind

PresegD1: native linear PCY1 substrate presegetalin D1 (GLSFAFPAKDAENASSPV)
Kd (PCY1:S562A): ~0.2 µM

PresegF1: native linear PCY1 substrate presegetalin F1; produces a 9 residue macrocycle (FSASYSSKPIQTQVSNGMDNASAPV; PresegF1)
Kd (PCY1:S562A): ~0.2 µM
kcat (table head prints kout) (PCY1 [2]; LC/MS (ion counts), 30° C.): 0.12 ± 0.01 s⁻¹
Km (PCY1 [2]; LC/MS (ion counts), 30° C.): 2.4 ± 0.51 µM
processing by PCY1 (in words) (PCY1 [2]; steady state kinetics, FIG. 7): rapidly processed
time until completely macrocyclized (PCY1 [3]): > 3 h

RAANSAPV [catalytic peptide for PCY1]
effect of catalytic peptide on rate of PreF1coreT macrocyclisation (PCY1 [1]): increase in the rate

RANASAPV [catalytic peptide for PCY1]
effect of catalytic peptide on rate of PreF1coreT macrocyclisation (PCY1 [1]): increase in the rate

RASAPV
effect of catalytic peptide on rate of PreF1coreT macrocyclisation (PCY1 [1]): increase in the rate

RGANASAPV [catalytic peptide for PCY1]
effect of catalytic peptide on rate of PreF1coreT macrocyclisation (PCY1 [1]): increase in the rate

RGGNASAPV [catalytic peptide for PCY1]
effect of catalytic peptide on rate of PreF1coreT macrocyclisation (PCY1 [1]): increase in the rate

RGNASAPV [catalytic peptide for PCY1]
effect of catalytic peptide on rate of PreF1coreT macrocyclisation (PCY1 [1]): increase in the rate

RNASAPV [catalytic peptide for PCY1]
effect of catalytic peptide on rate of PreF1coreT macrocyclisation (PCY1 [1]): increases the rate; also recorded: increase in the rate

TLASGNDIC [9mer-recogSeq]
Kd (GmPOPB_S577A): 121 ± 19 µM

VDQTLASGNDIC [12mer-recogSeq]
Kd (GmPOPB_S577A): 5 ± 1 µM
difference in binding affinity (fold) (GmPOPB_S577A): 20 fold
